Source: patent US9642366B2, “Active substance combinations that have nematicidal, insecticidal, and fungicidal properties and are based on trifluorobutenyl compounds” (priority 2003, dated 2017)
Where “and” joins values, the source holds several entries; their conditions need not be identical. Identical values can stand only once.

What was measured:
Phytophthora cactorum = test: Mycelium growth test with Phytophthora cactorum; assay type: cell-based; conditions: single active compound
Meloidogyne incognita = test: Meloidogyne test (nematicidal action, gall formation on lettuce roots); assay type: in vivo; conditions: single active compound
Excerpt: (§1) The expected action for a given combination of two active compounds can be calculated as follows (cf. Colby, S. R., “Calculating Synergistic and Antagonistic Responses of Herbicide Combinations”, Weeds 15 (1967), 20-22):
(§2) If • X is the efficacy or kill rate, expressed as a percentage of the untreated control, when employing active compound A in a concentration of m ppm, • Y is the efficacy or kill rate, expressed as a percentage of the untreated control, when employing active compound B in a concentration of […] and • E is the efficacy or kill rate, expressed as a percentage of the untreated control, when employing active compounds A and B in a concentration of m and n ppm,
(§3) If the actual fungicidal or nematicidal, insecticidal and/or acaricidal action exceeds the calculated value, the action of the combination is superadditive, i.e. a synergistic effect is present. In this case, the actually observed efficacy or kill rate must exceed the value calculated using the above formula for the expected efficacy (E).
Solvent: 7 parts by weight of dimethylformamide
Emulsifier: 2 parts by weight of alkylaryl polyglycol ether
To produce a suitable preparation of active compound, 1 part by weight of active compound is mixed with the stated amounts of solvent and emulsifier, and the concentrate is diluted with water to the desired concentration.
Vessels are filled with sand, solution of active compound, Meloidogyne incognita egg/larvae suspension and lettuce seeds. The lettuce seeds germinate and plants develop. On the roots, galls are formed.
After the desired period of time, the nematicidal action is determined in % by the formation of galls. 100% means that no galls have been found; 0% means that the number of galls on the treated plants corresponds to that of the untreated control. The determined kill rates are inserted into Colby's formula.

Rhizoctonia solani = test: Mycelium growth test with Rhizoctonia solani; assay type: cell-based; conditions: single active compound
Phythium ultimum = test: Mycelium growth test with Phythium ultimum; assay type: cell-based; conditions: single active compound
[1] = tested on: Plutella xylostella, sensitive strain; test: Plutella test, sensitive strain (insecticidal action, dipped cabbage leaves); assay type: in vivo; conditions: 100 ppm, single active compound
Excerpt: as §1, §2, §3
Solvent: 7 parts by weight of dimethylformamide […]
Cabbage leaves (Brassica oleracea) are treated by being dipped into the preparation of active compound of the desired concentration and are populated with caterpillars of the diamondback moth (Plutella xylostella, sensitive strain) while the leaves are still moist. After the desired period of time, the kill in % is determined. […]

Fusarium nivale = test: Mycelium growth test with Fusarium nivale; assay type: cell-based; conditions: 1 ppm in the nutrient medium, single active compound

In the case of CCCN(CCOc1c(Cl)cc(Cl)cc1Cl)C(=O)n1ccnc1 [prochloraz], the “Efficacy [%]” value (Phytophthora cactorum; 50 ppm in the nutrient medium) is reported as 30%.
For N#Cc1c[nH]cc1-c1cccc2c1OC(F)(F)O2 [fludioxonil], the “Kill rate [%] after 14 days” value (Meloidogyne incognita; 20 ppm) was 0%.
With O=C(Nc1ccccc1)N(Cc1ccc(Cl)cc1)C1CCCC1 [pencycuron] the “Efficacy [%]” value (Phytophthora cactorum; 200 ppm in the nutrient medium) was 0%.
With CO/N=C(/C1=NOCCO1)c1ccccc1Oc1ncnc(Oc2ccccc2Cl)c1F [fluoxastrobin] the “Efficacy [%]” value (Phytophthora cactorum; 5 ppm in the nutrient medium) was 28%, the “Efficacy [%]” value (Rhizoctonia solani; 1 ppm in the nutrient medium) was 39% and the “Efficacy [%]” value (Phythium ultimum; 10 ppm in the nutrient medium) was 74%.
For OC(Cc1ccccc1Cl)(Cn1nc[nH]c1=S)C1(Cl)CC1 (centres unmarked) [prothioconazole], the “Kill rate [%] after 14 days” value (Meloidogyne incognita; 20 ppm) was 50%.
In the case of CC(C)NC(=O)N1CC(=O)N(c2cc(Cl)cc(Cl)c2)C1=O [iprodione], the “Efficacy [%]” value (Phythium ultimum; 200 ppm in the nutrient medium) is reported as 9%.
O=S(=O)(CCC(F)=C(F)F)c1ncc(Cl)s1 [(IC)] was tested, and the “Kill rate [%] after 14 days” value (Meloidogyne incognita; 0.8 ppm) was 50%, the “Kill rate [%] after 3 days” value [1] was 0% and the “Efficacy [%]” value (Phytophthora cactorum; 50 ppm in the nutrient medium) was 7%. For the same compound, the “Efficacy [%]” value (Phytophthora cactorum; 100 ppm in the nutrient medium) was 18% and 23%, the “Efficacy [%]” value (Fusarium nivale) was 15% and the “Efficacy [%]” value (Rhizoctonia solani; 1 ppm in the nutrient medium) was 0%. The “Efficacy [%]” value (Rhizoctonia solani; 10 ppm in the nutrient medium) was 49%.
With CC(C)(C)C(O)(CCc1ccc(Cl)cc1)Cn1cncn1 (centres unmarked) [tebuconazole] the “Efficacy [%]” value (Phytophthora cactorum; 100 ppm in the nutrient medium) was 12% and the “Efficacy [%]” value (Phythium ultimum; 100 ppm in the nutrient medium) was 72%.
For tolylfluanid, the “Efficacy [%]” value (Phytophthora cactorum; 10 ppm in the nutrient medium) was 65% and the “Efficacy [%]” value (Phythium ultimum; 10 ppm in the nutrient medium) was 82%.
CO/N=C(\C(=O)OC)c1ccccc1CO/N=C(\C)c1cccc(C(F)(F)F)c1 [trifloxystrobin] was tested, and the “Kill rate [%] after 14 days” value (Meloidogyne incognita; 20 ppm) was 0%, the “Kill rate [%] after 3 days” value [1] was 15% and the “Efficacy [%]” value (Phytophthora cactorum; 10 ppm in the nutrient medium) was 29%. The “Efficacy [%]” value (Rhizoctonia solani; 1 ppm in the nutrient medium) was 39%.
